Source: patent US20230310459A1, “NEUROACTIVE STEROIDS AND THEIR METHODS OF USE” (Sage Therapeutics, Inc., priority 2017, published 2023)
Like-named read-outs stand apart in the source and are kept apart here.

Test: Phase 1 four-period crossover study of relative bioavailability and food effect, Compound 1 Capsules vs Oral Solution, plasma PK
Format: in vivo, human
Conditions: for AUC(0-inf) / AUC(0-t) / Cmax / half-life / Tmax: human, po; for AUC(0-inf) / AUC(0-t) / Cmax / half-life / Tmax / AUC0-inf, geometric mean / AUC0-t, geometric mean / Cmax, geometric mean: plasma, healthy subjects; for AUC(0-inf) / AUC(0-t) / Cmax / half-life / Tmax / AUC0-inf geometric mean ratio (GMR) Test/Reference / AUC0-t geometric mean ratio (GMR) Test/Reference / Cmax geometric mean ratio (GMR) Test/Reference: 30 mg; for Tmax: read-out: tmax, median
Description: In a Phase 1, single-center, open-label, four-period, two-sequence crossover study, Compound 1 capsules were evaluated for safety, tolerability, and relative bioavailability. Twelve (12) subjects completed all four periods of the study; subjects who replaced discontinued subjects were allocated to the same randomization sequence as those discontinued. Up to 24 subjects were recruited into the study.
This study consisted of four periods:
Period 1: Subjects (N=20) were randomized on a 1:1 basis to receive a single 30-mg dose of Compound 1 Capsules or a single 30-mg dose of Compound 1 Oral Solution on Day 1. Study drug was administered in the fasting state. Subjects were confined to the inpatient facility from Day −1 until they were discharged on Day 3.
On Day 8, study drug was administered in the fasting state. Subjects were confined to the inpatient facility from Day 7 until they were discharged on Day 10.
Period 3: Food Effect (high fat): All subjects received a single 30 mg dose of Compound 1 Capsules on Day 15. Study drug was administered after a high-fat meal. Subjects were confined to the inpatient facility from Day 14 until they were discharged on Day 17.
Period 4: Food Effect (standard): All subjects received a single 30 mg dose of Compound 1 Capsules on Day 22. Study drug was administered after a standard meal. Subjects were confined to the inpatient facility from Day 21 until they were discharged on Day 24.
Subjects were admitted on the day before the dose was scheduled to be administered (i.e., on Day −1, Day 7, Day 14 and Day 21) in order to undergo the predose assessments.
The Compound 1 Capsules dose was administered as two capsules with 8 ounces (240 mL) of water; both capsules were to be swallowed as quickly as possible. Compound 1 Oral Solution was prepared as approximately 40 mL, to be swallowed all at once, followed by approximately 200 mL of water that was used to rinse the dosing bottle approximately five times. The time of swallowing the initial 40 mL solution or capsules was the time zero for all assessments.
Subjects were not allowed to consume water for 1 hour before and after dosing, except for water consumed during dosing. After 1 hour postdose, water was allowed ad libitum. Subjects were required to fast overnight (minimum of 10 hours) prior to the scheduled dosing. In periods 1 and 2, subjects were administered a standard meal 4 or more hours after the dose was administered.
(§1) In period 3 (food effect high-fat meal), subjects were administered a high-fat meal 30 minutes prior to administration of the Compound 1 Capsules. Subjects should have eaten this meal in 30 minutes or less, and the Compound 1 dose was administered 30 minutes after the start of the meal. No other food was allowed for at least 4 hours postdose.
as §1, with “period 4” for “period 3”, “effect standard” for “effect high-fat”, “a standard” for “a high-fat”, “after” for “after the”
Plasma samples were collected for PK analysis of Compound 1 at the following sampling times relative to dosing in each period: predose on Day 1 and at 15 and 30 minutes and 1, 1.5, 2, 3, 4, 6, 8, 10, 12, 16, 24 (Day 2), and 48 (Day 3) hours postdose.
The plasma samples were kept frozen at approximately −70 to −80° C. until analyzed. They were packed as directed to avoid breakage during transit and with sufficient dry ice to prevent thawing for at least 72 hours. A specimen-identification form or equivalent was completed and sent to the laboratory with each set of samples.
Bioanalyses of plasma samples for the determination of Compound 1 were conducted utilizing validated LC-MS/MS methods at Agilux Laboratories, Worcester, MA.
The BLQ values between evaluable concentrations and the terminal BLQ values were set to ‘missing’. […]

[1] = single 30 mg oral dose, Capsules, fed [high-fat meal]
[2] = single 30 mg oral dose, Capsules, fed [standard meal]
[3] = single 30-mg oral dose, Capsules, fasted
[4] = single 30-mg oral dose, Oral Solution, fasted
[5] = test Fasted Capsules / reference Fasted Solution
[6] = test Fed Capsules [Standard meal] / reference Fasted Capsules
[7] = test Fed Capsules [Standard meal] / reference Fasted Solution
[8] = test Fed Capsules [high-fat meal] / reference Fasted Capsules
[9] = test Fed Capsules [high-fat meal] / reference Fasted Solution

## C[C@@]1(O)CC[C@H]2[C@H](CC[C@@H]3[C@@H]2CC[C@]2(C)[C@@H](C(=O)Cn4cc(C#N)cn4)CC[C@@H]32)C1 [Compound 1, 1-(2-((3R,5R,8R,9R,10S,13S,14S,17S)-3-hydroxy-3,13-dimethylhexadecahydro-1H-cyclopenta[a]phenanthren-17-yl)-2-oxoethyl)-1H-pyrazole-4-carbonitrile]
Single 30 mg oral dose, Capsules, fed [high-fat meal], read-out: AUC0-inf, arithmetic mean
  AUC(0-inf): 896 ng·h/mL
Single 30 mg oral dose, Capsules, fed [high-fat meal], read-out: AUC0-inf, geometric mean
  AUC(0-inf): 867 ng·h/mL
Single 30 mg oral dose, Capsules, fed [high-fat meal], read-out: AUC0-inf, median
  AUC(0-inf): 878 ng·h/mL
Single 30 mg oral dose, Capsules, fed [high-fat meal], read-out: AUC0-t, arithmetic mean
  AUC(0-t): 846 ng·h/mL
Single 30 mg oral dose, Capsules, fed [high-fat meal], read-out: AUC0-t, geometric mean
  AUC(0-t): 834 ng·h/mL
Single 30 mg oral dose, Capsules, fed [high-fat meal], read-out: AUC0-t, median
  AUC(0-t): 822 ng·h/mL
Single 30 mg oral dose, Capsules, fed [high-fat meal], read-out: Cmax, arithmetic mean
  Cmax: 64.4 ng/mL
Single 30 mg oral dose, Capsules, fed [high-fat meal], read-out: Cmax, geometric mean
  Cmax: 62.8 ng/mL
Single 30 mg oral dose, Capsules, fed [high-fat meal], read-out: Cmax, median
  Cmax: 66.3 ng/mL
Single 30 mg oral dose, Capsules, fed [high-fat meal], read-out: t1/2, arithmetic mean (converted)
  half-life: 12.9 h
Single 30 mg oral dose, Capsules, fed [high-fat meal], read-out: t1/2, median (converted)
  half-life: 12.7 h
[1]
  Tmax: 5.97 h
  AUC0-inf, geometric mean: 866.90 ng·h/mL
  AUC0-t, geometric mean: 834.06 ng·h/mL
Single 30 mg oral dose, Capsules, fed [standard meal], read-out: AUC0-inf, arithmetic mean
  AUC(0-inf): 1020 ng·h/mL
Single 30 mg oral dose, Capsules, fed [standard meal], read-out: AUC0-inf, geometric mean
  AUC(0-inf): 1010 ng·h/mL
Single 30 mg oral dose, Capsules, fed [standard meal], read-out: AUC0-inf, median
  AUC(0-inf): 1060 ng·h/mL
Single 30 mg oral dose, Capsules, fed [standard meal], read-out: AUC0-t, arithmetic mean
  AUC(0-t): 852 ng·h/mL
Single 30 mg oral dose, Capsules, fed [standard meal], read-out: AUC0-t, geometric mean
  AUC(0-t): 838 ng·h/mL
Single 30 mg oral dose, Capsules, fed [standard meal], read-out: AUC0-t, median
  AUC(0-t): 881 ng·h/mL
Single 30 mg oral dose, Capsules, fed [standard meal], read-out: Cmax, arithmetic mean
  Cmax: 65.2 ng/mL
Single 30 mg oral dose, Capsules, fed [standard meal], read-out: Cmax, geometric mean
  Cmax: 63.1 ng/mL
Single 30 mg oral dose, Capsules, fed [standard meal], read-out: Cmax, median
  Cmax: 63.2 ng/mL
Single 30 mg oral dose, Capsules, fed [standard meal], read-out: t1/2, arithmetic mean (converted)
  half-life: 14.9 h
Single 30 mg oral dose, Capsules, fed [standard meal], read-out: t1/2, median (converted)
  half-life: 15.8 h
[2]
  Tmax: 4 h
  AUC0-inf, geometric mean: 1013.04 ng·h/mL
  AUC0-t, geometric mean: 837.55 ng·h/mL
  Cmax, geometric mean: 63.12 ng/mL
Single 30-mg oral dose, Capsules, fasted, read-out: AUC0-inf, arithmetic mean
  AUC(0-inf): 642 ng·h/mL
Single 30-mg oral dose, Capsules, fasted, read-out: AUC0-inf, geometric mean
  AUC(0-inf): 640 ng·h/mL
Single 30-mg oral dose, Capsules, fasted, read-out: AUC0-inf, median
  AUC(0-inf): 650 ng·h/mL
Single 30-mg oral dose, Capsules, fasted, read-out: AUC0-t, arithmetic mean
  AUC(0-t): 544 ng·h/mL
Single 30-mg oral dose, Capsules, fasted, read-out: AUC0-t, geometric mean
  AUC(0-t): 530 ng·h/mL
Single 30-mg oral dose, Capsules, fasted, read-out: AUC0-t, median
  AUC(0-t): 552 ng·h/mL
Single 30-mg oral dose, Capsules, fasted, read-out: Cmax, arithmetic mean
  Cmax: 23 ng/mL
Single 30-mg oral dose, Capsules, fasted, read-out: Cmax, geometric mean
  Cmax: 21.8 ng/mL
Single 30-mg oral dose, Capsules, fasted, read-out: Cmax, median
  Cmax: 20.4 ng/mL
Single 30-mg oral dose, Capsules, fasted, read-out: t1/2, arithmetic mean (converted)
  half-life: 15.6 h
Single 30-mg oral dose, Capsules, fasted, read-out: t1/2, median (converted)
  half-life: 15.7 h
[3]
  Tmax: 4.02 h
  AUC0-inf, geometric mean: 639.69 ng·h/mL
  AUC0-t, geometric mean: 529.62 ng·h/mL
  Cmax, geometric mean: 21.81 ng/mL
Single 30-mg oral dose, Oral Solution, fasted, read-out: AUC0-inf, arithmetic mean
  AUC(0-inf): 798 ng·h/mL
Single 30-mg oral dose, Oral Solution, fasted, read-out: AUC0-inf, geometric mean
  AUC(0-inf): 770 ng·h/mL
Single 30-mg oral dose, Oral Solution, fasted, read-out: AUC0-inf, median
  AUC(0-inf): 816 ng·h/mL
Single 30-mg oral dose, Oral Solution, fasted, read-out: AUC0-t, arithmetic mean
  AUC(0-t): 795 ng·h/mL
Single 30-mg oral dose, Oral Solution, fasted, read-out: AUC0-t, geometric mean
  AUC(0-t): 776 ng·h/mL
Single 30-mg oral dose, Oral Solution, fasted, read-out: AUC0-t, median
  AUC(0-t): 788 ng·h/mL
Single 30-mg oral dose, Oral Solution, fasted, read-out: Cmax, arithmetic mean
  Cmax: 120 ng/mL
Single 30-mg oral dose, Oral Solution, fasted, read-out: Cmax, geometric mean
  Cmax: 114 ng/mL
Single 30-mg oral dose, Oral Solution, fasted, read-out: Cmax, median
  Cmax: 115 ng/mL
Single 30-mg oral dose, Oral Solution, fasted, read-out: t1/2, arithmetic mean (converted)
  half-life: 13.5 h
Single 30-mg oral dose, Oral Solution, fasted, read-out: t1/2, median (converted)
  half-life: 13.3 h
[4]
  Tmax: 1 h
  AUC0-inf, geometric mean: 770.31 ng·h/mL
  AUC0-t, geometric mean: 776.27 ng·h/mL
[5]
  AUC0-inf geometric mean ratio (GMR) Test/Reference: 0.830
  AUC0-t geometric mean ratio (GMR) Test/Reference: 0.682
  Cmax geometric mean ratio (GMR) Test/Reference: 0.191
[6]
  AUC0-inf geometric mean ratio (GMR) Test/Reference: 1.584
  AUC0-t geometric mean ratio (GMR) Test/Reference: 1.581
  Cmax geometric mean ratio (GMR) Test/Reference: 2.894
[7]
  AUC0-inf geometric mean ratio (GMR) Test/Reference: 1.315
  AUC0-t geometric mean ratio (GMR) Test/Reference: 1.079
  Cmax geometric mean ratio (GMR) Test/Reference: 0.552
[8]
  AUC0-inf geometric mean ratio (GMR) Test/Reference: 1.355
  AUC0-t geometric mean ratio (GMR) Test/Reference: 1.575
  Cmax geometric mean ratio (GMR) Test/Reference: 2.879
[9]
  AUC0-inf geometric mean ratio (GMR) Test/Reference: 1.125
  AUC0-t geometric mean ratio (GMR) Test/Reference: 1.074
  Cmax geometric mean ratio (GMR) Test/Reference: 0.549
